From US20120094998A1, “Oligomer-Protein Tyrosine Kinase Inhibitor Conjugates” (Nektar Therapeutics, priority 2009, published 2012)
Where two headings read alike, the source gives them in different places.

Tests used:
EPHA2 = EPHA2 (Homo sapiens, UniProt P29317); assay: Activity against various protein tyrosine kinases: EPHA2; format: biochemical; details: for inhibition at 0.01 µM: 10 nM
Procedure: (§1) Using techniques know those of ordinary skill in the art, compounds were tested for activity against various protein tyrosine kinases.

BTK = BTK (Homo sapiens, UniProt Q06187); assay: Activity against various protein tyrosine kinases: BTK; format: biochemical; details: for inhibition at 0.01 µM: 10 nM
Procedure: as §1

ABL (Q252H) = ABL (Q252H) (Homo sapiens, UniProt P00519, Q252H); assay: Activity against various protein tyrosine kinases: ABL (Q252H); format: biochemical; details: for inhibition at 0.01 µM: read-out: % Inhibition at 10 nM; for inhibition at 1 µM: read-out: % Inhibition at 1 μM
Procedure: as §1

SRC = SRC (Homo sapiens, UniProt P12931); assay: Activity against various protein tyrosine kinases: SRC; format: biochemical; details: for inhibition at 0.01 µM: 10 nM
Procedure: as §1

Erk1 = Erk1 (Homo sapiens, UniProt P27361); assay: Activity against various protein tyrosine kinases: Erk1; format: biochemical; details: for inhibition at 0.01 µM: 10 nM
Procedure: as §1

EGFR = EGFR (Homo sapiens, UniProt P00533); assay: Activity against various protein tyrosine kinases: EGFR; format: biochemical; details: for inhibition at 0.01 µM: 10 nM
Procedure: as §1

HCK = HCK (Homo sapiens, UniProt P08631); assay: Activity against various protein tyrosine kinases: HCK; format: biochemical; details: for inhibition at 0.01 µM: 10 nM
Procedure: as §1

PDGFR_beta = PDGFR_beta (Homo sapiens, UniProt P09619); assay: Activity against various protein tyrosine kinases: PDGFR_beta; format: biochemical; details: for inhibition at 0.01 µM: 10 nM
Procedure: as §1

ABL [1] = target: T1, ABL (Homo sapiens, UniProt P00519); assay: Off-chip mobility-shift kinase assay (Caliper LABCHIP), ABL
RSK1 = RSK1 (Homo sapiens, UniProt Q15418); assay: Activity against various protein tyrosine kinases: RSK1; format: biochemical; details: for inhibition at 0.01 µM: 10 nM
Procedure: as §1

PKG1-beta = target: T2, PKG1-beta (Homo sapiens, UniProt Q13976); assay: Activity against various protein tyrosine kinases: PKG1-beta; format: biochemical; details: for inhibition at 0.01 µM: 10 nM
T2 sequence (Q13976 1-686 isoform Q13976-2): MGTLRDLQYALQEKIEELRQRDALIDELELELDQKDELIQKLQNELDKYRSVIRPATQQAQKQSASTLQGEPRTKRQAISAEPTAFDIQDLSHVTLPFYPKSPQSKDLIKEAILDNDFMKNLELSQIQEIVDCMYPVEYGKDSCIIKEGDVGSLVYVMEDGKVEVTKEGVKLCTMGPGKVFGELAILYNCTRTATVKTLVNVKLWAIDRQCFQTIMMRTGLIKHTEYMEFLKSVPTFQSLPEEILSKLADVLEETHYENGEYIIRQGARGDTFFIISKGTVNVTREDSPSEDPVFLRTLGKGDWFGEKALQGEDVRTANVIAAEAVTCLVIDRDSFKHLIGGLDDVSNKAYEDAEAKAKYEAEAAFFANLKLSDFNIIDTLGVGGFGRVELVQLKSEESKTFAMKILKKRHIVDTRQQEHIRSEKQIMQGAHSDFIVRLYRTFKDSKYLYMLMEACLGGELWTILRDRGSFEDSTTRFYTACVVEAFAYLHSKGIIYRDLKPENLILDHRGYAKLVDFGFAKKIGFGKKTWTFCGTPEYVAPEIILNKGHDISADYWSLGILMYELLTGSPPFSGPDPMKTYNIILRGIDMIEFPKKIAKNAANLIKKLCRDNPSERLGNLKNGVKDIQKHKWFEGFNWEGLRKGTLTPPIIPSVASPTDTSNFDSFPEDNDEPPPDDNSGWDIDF
Procedure: as §1

ABL [2] = target: T1, ABL; assay: Activity against various protein tyrosine kinases: ABL; format: biochemical; design: purchased MILLIPORE 14-529; details: for inhibition at 0.01 µM: read-out: % Inhibition at 10 nM; for inhibition at 1 µM: read-out: % Inhibition at 1 μM
Procedure: as §1

p38-delta = target: T3, p38-delta (Homo sapiens, UniProt O15264); assay: Activity against various protein tyrosine kinases: p38-delta; format: biochemical; details: for inhibition at 0.01 µM: 10 nM
T3 sequence (O15264 1-365): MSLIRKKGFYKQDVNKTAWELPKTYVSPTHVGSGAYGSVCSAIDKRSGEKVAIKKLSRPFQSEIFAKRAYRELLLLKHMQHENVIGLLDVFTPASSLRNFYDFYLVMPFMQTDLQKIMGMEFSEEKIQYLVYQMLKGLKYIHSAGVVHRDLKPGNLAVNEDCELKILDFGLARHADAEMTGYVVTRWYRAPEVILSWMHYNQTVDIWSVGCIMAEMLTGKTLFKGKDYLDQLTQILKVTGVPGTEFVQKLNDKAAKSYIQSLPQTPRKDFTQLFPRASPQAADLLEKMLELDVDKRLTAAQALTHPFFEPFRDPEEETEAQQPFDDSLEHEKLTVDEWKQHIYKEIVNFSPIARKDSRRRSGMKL
Procedure: as §1

ABL (H396P) = ABL (H396P) (Homo sapiens, UniProt P00519, H396P); assay: Activity against various protein tyrosine kinases: ABL (H396P); format: biochemical; details: for inhibition at 0.01 µM: read-out: % Inhibition at 10 nM; for inhibition at 1 µM: read-out: % Inhibition at 1 μM
Procedure: as §1

FGFR3 = FGFR3 (Homo sapiens, UniProt P22607); assay: Activity against various protein tyrosine kinases: FGFR3; format: biochemical; details: for inhibition at 0.01 µM: 10 nM
Procedure: as §1

LCK = LCK (Homo sapiens, UniProt P06239); assay: Activity against various protein tyrosine kinases: LCK; format: biochemical; details: for inhibition at 0.01 µM: 10 nM
Procedure: as §1

RSK1, sequence (Q15418 whole entry, species assumed): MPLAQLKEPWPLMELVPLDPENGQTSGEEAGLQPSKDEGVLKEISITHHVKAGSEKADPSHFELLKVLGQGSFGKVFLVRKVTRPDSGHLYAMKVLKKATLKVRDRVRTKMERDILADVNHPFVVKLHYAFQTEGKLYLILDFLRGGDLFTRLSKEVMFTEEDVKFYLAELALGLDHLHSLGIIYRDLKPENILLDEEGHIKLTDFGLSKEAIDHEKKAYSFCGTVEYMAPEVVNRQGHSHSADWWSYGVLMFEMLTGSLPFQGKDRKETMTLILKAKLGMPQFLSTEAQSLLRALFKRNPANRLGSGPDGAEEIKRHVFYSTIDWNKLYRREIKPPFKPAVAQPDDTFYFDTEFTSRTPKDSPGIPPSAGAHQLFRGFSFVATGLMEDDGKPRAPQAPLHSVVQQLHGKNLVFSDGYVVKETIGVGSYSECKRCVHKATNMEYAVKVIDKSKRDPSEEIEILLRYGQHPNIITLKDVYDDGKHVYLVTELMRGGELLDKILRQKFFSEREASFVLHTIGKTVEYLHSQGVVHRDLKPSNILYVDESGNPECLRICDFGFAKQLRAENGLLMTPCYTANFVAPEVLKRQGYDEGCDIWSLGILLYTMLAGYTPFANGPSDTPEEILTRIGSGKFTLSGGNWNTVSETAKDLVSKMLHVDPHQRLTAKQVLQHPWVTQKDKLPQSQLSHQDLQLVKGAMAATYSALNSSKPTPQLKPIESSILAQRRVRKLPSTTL
HCK, sequence (P08631 whole entry, species assumed): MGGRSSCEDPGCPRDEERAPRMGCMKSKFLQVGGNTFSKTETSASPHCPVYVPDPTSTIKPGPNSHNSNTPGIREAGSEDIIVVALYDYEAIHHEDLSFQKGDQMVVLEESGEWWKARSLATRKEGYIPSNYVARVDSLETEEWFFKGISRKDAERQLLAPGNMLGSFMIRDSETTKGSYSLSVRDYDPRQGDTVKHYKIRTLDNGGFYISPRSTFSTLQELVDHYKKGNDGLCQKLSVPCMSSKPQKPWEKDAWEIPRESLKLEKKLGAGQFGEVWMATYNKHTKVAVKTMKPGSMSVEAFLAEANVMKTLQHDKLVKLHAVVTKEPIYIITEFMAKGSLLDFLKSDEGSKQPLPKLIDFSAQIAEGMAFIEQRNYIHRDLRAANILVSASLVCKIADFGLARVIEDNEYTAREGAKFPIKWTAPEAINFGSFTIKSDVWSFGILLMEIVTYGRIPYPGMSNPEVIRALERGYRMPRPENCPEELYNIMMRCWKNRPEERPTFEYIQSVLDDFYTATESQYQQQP
Erk1, sequence (P27361 whole entry, species assumed): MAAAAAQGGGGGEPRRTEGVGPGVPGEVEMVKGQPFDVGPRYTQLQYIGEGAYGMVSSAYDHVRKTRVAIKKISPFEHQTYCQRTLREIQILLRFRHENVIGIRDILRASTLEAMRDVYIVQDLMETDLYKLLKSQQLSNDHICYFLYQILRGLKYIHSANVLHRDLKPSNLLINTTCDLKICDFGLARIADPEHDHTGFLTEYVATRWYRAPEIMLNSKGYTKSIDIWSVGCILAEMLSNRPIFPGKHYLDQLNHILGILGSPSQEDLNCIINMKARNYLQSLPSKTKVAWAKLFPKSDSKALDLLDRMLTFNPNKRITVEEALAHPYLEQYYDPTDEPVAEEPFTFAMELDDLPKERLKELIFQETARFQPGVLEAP
PDGFR_beta, sequence (P09619 33-1106, species assumed): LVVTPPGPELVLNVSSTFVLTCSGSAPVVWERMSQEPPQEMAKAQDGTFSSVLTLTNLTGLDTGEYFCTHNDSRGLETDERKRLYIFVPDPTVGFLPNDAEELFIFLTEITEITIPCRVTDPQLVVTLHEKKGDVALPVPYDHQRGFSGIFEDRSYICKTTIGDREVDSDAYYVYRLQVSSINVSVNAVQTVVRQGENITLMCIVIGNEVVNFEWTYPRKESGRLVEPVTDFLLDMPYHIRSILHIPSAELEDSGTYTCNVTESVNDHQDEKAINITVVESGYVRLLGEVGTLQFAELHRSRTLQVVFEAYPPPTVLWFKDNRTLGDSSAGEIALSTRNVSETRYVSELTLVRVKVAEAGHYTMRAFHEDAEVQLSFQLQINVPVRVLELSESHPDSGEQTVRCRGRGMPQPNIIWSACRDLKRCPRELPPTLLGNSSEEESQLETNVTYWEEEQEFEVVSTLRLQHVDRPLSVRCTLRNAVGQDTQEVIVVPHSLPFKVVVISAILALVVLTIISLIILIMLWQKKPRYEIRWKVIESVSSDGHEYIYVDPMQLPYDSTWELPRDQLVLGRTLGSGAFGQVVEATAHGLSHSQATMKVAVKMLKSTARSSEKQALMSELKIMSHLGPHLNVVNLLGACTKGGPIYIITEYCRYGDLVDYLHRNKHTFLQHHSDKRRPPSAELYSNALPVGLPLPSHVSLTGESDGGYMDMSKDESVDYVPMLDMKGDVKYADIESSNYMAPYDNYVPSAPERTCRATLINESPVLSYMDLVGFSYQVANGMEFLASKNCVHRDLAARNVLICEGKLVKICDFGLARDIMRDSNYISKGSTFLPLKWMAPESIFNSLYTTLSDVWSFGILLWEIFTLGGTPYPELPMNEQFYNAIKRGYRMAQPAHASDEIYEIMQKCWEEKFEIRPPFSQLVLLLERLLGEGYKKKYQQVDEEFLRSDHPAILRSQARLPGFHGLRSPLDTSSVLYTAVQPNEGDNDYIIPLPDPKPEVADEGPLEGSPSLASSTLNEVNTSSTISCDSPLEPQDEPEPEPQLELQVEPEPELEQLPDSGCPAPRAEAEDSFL
EPHA2, sequence (P29317 24-976, species assumed): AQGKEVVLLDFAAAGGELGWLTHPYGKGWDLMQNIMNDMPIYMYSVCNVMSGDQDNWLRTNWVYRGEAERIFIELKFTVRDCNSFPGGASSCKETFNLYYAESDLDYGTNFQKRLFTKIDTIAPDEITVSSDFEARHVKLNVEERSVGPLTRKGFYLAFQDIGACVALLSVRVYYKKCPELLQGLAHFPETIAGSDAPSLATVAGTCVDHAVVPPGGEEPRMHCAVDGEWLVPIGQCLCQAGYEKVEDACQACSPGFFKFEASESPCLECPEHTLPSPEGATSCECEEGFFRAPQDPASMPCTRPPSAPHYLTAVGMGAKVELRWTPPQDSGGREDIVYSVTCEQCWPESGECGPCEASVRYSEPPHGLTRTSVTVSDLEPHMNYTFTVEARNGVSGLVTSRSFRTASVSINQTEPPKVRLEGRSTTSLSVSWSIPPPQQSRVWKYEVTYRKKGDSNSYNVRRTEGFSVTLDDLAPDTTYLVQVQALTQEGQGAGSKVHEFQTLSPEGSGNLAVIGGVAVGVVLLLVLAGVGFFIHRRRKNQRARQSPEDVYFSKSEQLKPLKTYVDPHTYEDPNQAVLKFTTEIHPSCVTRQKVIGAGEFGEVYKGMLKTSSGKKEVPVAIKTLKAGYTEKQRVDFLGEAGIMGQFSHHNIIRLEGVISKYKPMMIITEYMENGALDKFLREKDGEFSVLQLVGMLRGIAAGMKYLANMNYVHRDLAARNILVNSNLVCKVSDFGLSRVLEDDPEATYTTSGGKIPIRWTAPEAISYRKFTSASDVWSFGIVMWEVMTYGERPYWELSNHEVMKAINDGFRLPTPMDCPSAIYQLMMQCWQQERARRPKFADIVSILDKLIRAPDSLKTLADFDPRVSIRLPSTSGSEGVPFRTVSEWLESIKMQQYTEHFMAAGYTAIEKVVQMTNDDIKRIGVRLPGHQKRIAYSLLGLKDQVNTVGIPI
LCK, sequence (P06239 whole entry, species assumed): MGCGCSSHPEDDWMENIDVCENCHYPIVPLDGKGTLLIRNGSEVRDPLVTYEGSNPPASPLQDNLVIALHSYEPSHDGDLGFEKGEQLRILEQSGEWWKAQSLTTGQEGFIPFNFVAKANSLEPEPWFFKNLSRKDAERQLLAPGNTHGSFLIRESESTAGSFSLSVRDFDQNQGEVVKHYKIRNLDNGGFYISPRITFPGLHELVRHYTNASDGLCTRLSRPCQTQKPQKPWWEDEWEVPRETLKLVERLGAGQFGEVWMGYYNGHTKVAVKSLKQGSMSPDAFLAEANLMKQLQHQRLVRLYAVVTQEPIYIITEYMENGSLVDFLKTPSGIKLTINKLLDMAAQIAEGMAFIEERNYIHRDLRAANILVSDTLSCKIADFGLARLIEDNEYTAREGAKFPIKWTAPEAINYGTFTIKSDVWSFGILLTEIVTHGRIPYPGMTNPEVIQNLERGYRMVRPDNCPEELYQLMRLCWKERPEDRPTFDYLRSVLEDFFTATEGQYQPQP
FGFR3, sequence (P22607 23-806, species assumed): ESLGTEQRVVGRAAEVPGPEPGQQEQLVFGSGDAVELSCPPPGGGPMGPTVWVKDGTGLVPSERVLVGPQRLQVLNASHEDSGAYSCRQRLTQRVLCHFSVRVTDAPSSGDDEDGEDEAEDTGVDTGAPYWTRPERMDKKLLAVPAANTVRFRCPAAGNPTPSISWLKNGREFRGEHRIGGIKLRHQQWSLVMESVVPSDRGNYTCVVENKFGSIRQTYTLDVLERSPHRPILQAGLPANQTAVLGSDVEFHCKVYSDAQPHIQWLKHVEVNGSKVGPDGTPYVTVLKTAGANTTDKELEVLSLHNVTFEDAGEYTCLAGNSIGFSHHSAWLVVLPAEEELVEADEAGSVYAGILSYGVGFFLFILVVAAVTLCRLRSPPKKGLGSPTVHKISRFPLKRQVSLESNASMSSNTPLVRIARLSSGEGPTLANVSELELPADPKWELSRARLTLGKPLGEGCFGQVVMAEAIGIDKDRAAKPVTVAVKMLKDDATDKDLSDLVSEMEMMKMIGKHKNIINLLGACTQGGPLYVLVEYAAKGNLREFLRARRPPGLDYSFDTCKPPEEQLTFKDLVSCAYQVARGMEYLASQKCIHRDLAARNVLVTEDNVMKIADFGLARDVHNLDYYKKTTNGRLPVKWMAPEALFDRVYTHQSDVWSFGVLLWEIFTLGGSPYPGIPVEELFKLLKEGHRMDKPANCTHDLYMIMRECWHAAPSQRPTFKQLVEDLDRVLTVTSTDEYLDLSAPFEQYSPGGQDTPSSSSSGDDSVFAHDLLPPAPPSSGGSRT

| SMILES | inhibition at 0.01 µM (EPHA2) [%] | inhibition at 1 µM (EPHA2) [%] | inhibition at 0.01 µM (BTK) [%] | inhibition at 1 µM (BTK) [%] | inhibition at 0.01 µM (SRC) [%] | inhibition at 1 µM (SRC) [%] | inhibition at 0.01 µM (Erk1) [%] | inhibition at 1 µM (Erk1) [%] | inhibition at 0.01 µM (EGFR) [%] | inhibition at 1 µM (EGFR) [%] | inhibition at 0.01 µM (HCK) [%] | inhibition at 1 µM (HCK) [%] | inhibition at 0.01 µM (PDGFR_beta) [%] | inhibition at 1 µM (PDGFR_beta) [%] | IC50 (ABL [1]) [nM] | inhibition at 0.01 µM (RSK1) [%] | inhibition at 1 µM (RSK1) [%] | inhibition at 0.01 µM (PKG1-beta) [%] | inhibition at 1 µM (PKG1-beta) [%] | inhibition at 0.01 µM (p38-delta) [%] | also measured |
| --- | --- | --- | --- | --- | --- | --- | --- | --- | --- | --- | --- | --- | --- | --- | --- | --- | --- | --- | --- | --- | --- |
| COCCOCCOCCNC(=O)OCCN1CCN(c2cc(Nc3ncc(C(=O)Nc4c(C)cccc4Cl)s3)nc(C)n2)CC1 [mPEG3-NHCOO-Dasatinib] | 40 | 100 | 99 | 100 | 99 | 99 | 3 | 2 | 3 | 76 | 98 | 98 | 48 | 99 | 0.3 | 2 | 0 | -2 | 0 | 0 | inhibition at 0.01 µM (ABL (Q252H)): 98%; inhibition at 1 µM (ABL (Q252H)): 99%; inhibition at 0.01 µM (ABL [2]): 99%; inhibition at 1 µM (ABL [2]): 99%; inhibition at 1 µM (p38-delta): 2%; inhibition at 0.01 µM (ABL (H396P)): 99%; inhibition at 1 µM (ABL (H396P)): 99%; inhibition at 0.01 µM (FGFR3): 3%; inhibition at 1 µM (FGFR3): 11%; inhibition at 0.01 µM (LCK): 97%; inhibition at 1 µM (LCK): 98% |
| COCCOCCOCCOCCOCCOCCOCCNC(=O)OCCN1CCN(c2cc(Nc3ncc(C(=O)Nc4c(C)cccc4Cl)s3)nc(C)n2)CC1 [mPEG7-NHCOO-Dasatinib] | 36 | 101 | 99 | 100 | 98 | 98 | 3 | 4 | 6 | 62 | 98 | 99 | 60 | 100 | 0.32 | 0 | 4 | -3 | -3 | 0 | inhibition at 0.01 µM (ABL (Q252H); ABL (Q252H), 10 nM): 99%; inhibition at 1 µM (ABL (Q252H); ABL (Q252H), 1 μM): 99%; ABL AVG % Activity at 1.0E−09 (ABL [1]; concentration 1.0E−09, dasatinib-corresponding compounds): 4%; ABL AVG % Activity at 1.0E−10 (ABL [1]; concentration 1.0E−10, dasatinib-corresponding compounds): 80%; ABL AVG % Activity at 1.0E−11 (ABL [1]; concentration 1.0E−11, dasatinib-corresponding compounds): 98%; ABL AVG % Activity at 3.0E−09 (ABL [1]; concentration 3.0E−09, dasatinib-corresponding compounds): −1%; ABL AVG % Activity at 3.0E−10 (ABL [1]; concentration 3.0E−10, dasatinib-corresponding compounds): 48%; ABL AVG % Activity at 3.0E−11 (ABL [1]; concentration 3.0E−11, dasatinib-corresponding compounds): 91%; inhibition at 0.01 µM (ABL [2]; ABL, 10 nM): 99%; inhibition at 1 µM (ABL [2]; ABL, 1 μM): 99%; inhibition at 1 µM (p38-delta): 0%; inhibition at 0.01 µM (ABL (H396P); ABL (H396P), 10 nM): 99%; inhibition at 1 µM (ABL (H396P); ABL (H396P), 1 μM): 99%; inhibition at 0.01 µM (FGFR3): 2%; inhibition at 1 µM (FGFR3): 10%; inhibition at 0.01 µM (LCK): 98%; inhibition at 1 µM (LCK): 98% |
